Values quoted from earlier work, collected in US20220387434A1, “COMBINATION OF A BTK INHIBITOR AND AN MDM2 INHIBITOR FOR CANCER TREATMENT” (QUOGUE IP HOLDINGS LLC, priority 2019, published 2022).

Tested on: lymphocytes
Conditions: Ibr versus Veh (FIG. 3)

Structure (SMILES): C=CC(=O)N1CCC[C@@H](n2nc(-c3ccc(Oc4ccccc4)cc3)c3c(N)ncnc32)C1 [Ibrutinib, 1-[(3R)-3-[4-amino-3-(4-phenoxyphenyl)pyrazolo[3,4-d]pyrimidin-1-yl]piperidin-1-yl]prop-2-en-1-one]
- mobilization of lymphocytes into the peripheral circulation: mobilization
